Structures are written as SMILES. Structures can show the parent of a compound that is named as a salt.

These results are taken from patent US11964960B2 (Cornell University, priority 2018, dated 2024).

For the first assay, the target named is T1, S1P2 (Homo sapiens, UniProt O95136).
T1 construct: Flag; expressed in transfected cells; host or cells: Chinese hamster ovary (CHO) cells, doxycycline-inducible (CHO-S1P2-FL / CHO-S1PR2 FL)
T1 sequence (O95136 whole entry, species assumed): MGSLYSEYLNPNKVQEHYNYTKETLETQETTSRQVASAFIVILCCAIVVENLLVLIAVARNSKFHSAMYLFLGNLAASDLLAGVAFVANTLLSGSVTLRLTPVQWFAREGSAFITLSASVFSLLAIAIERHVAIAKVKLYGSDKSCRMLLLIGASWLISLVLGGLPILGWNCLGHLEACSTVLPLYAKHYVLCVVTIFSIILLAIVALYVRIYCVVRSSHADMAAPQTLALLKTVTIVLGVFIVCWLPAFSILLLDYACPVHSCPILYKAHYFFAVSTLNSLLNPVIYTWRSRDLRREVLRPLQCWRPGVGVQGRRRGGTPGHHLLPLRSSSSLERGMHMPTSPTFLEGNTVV
The experiment in a line: GLISA RhoA activation - antagonist assay. To be noted: 1 μM compound, CHO-S1P2-FL cells. The class given is cell-based. Here is the method: GLISA RhoA Activation—Antagonist Assay
GLISA assays were performed using RhoA (BK124) activation kit purchased from Cytoskeleton Inc., Denver, CO Doxycycline-inducible Flag-tag S1P2 expressing Chinese hamster ovary (CHO) cells (CHO-S1P2-FL) were seeded in a 6-well plate, 1.5×10^5 cells per well. Cells were stimulated with […] of Doxycycline to induce S1P2 expression in serum free IMDM media with 0.1% BSA/PBS. Following day, cells were stimulated with the compounds described herein (1 nM-10 μM) or 1 μM JTE-013 for 1 hour at 37° C. Following compound incubation, cells were washed with PBS×3 and induced with 100 nM […] for 5 min. […] Protein concentration was examined using GLISA—Precision Red Advanced Protein assay reagent as described in assay manual. Lysates were immobilized on GTP-bound capture plate and GLISA assay was performed based on manufacture recommendations as reported previously.
One may read the inhibition as how much of the control response was suppressed. Low values mean a weak effect, high ones a strong effect. `Cc1cc(C(=O)C(C)n2cc(Br)ccc2=O)c(C)n1Cc1ccc(C#N)cc1` (centres unmarked) [Compound 16, 4-((3-(2-(5-bromo-2-oxopyridin-1(2H)-yl)propanoyl)-2,5-dimethyl-1H-pyrrol-1-yl)methyl)benzonitrile]: at 1 µM the inhibition was 39%.
Turning to `Cc1cc(C(=O)C(C)n2cc(Br)ccc2=O)c(C)n1Cc1ccccc1C#N` (centres unmarked) [Compound 17, 2-((3-(2-(5-bromo-2-oxopyridin-1(2H)-yl)propanoyl)-2,5-dimethyl-1H-pyrrol-1-yl)methyl)benzonitrile], the inhibition at 1 µM was 63%.
Regarding `Cc1cc(C(=O)C(C)n2cc(Br)ccc2=O)c(C)n1Cc1ccc(F)cc1` (centres unmarked) [Compound 18, 5-bromo-1-(1-(1-(4-fluorobenzyl)-2,5-dimethyl-1H-pyrrol-3-yl)-1-oxopropan-2-yl)pyridin-2(1H)-one], the inhibition at 1 µM came out at 76%.
`Cc1cc(C(=O)C(C)n2cc(Br)ccc2=O)c(C)n1Cc1ccccc1F` (centres unmarked) [Compound 19, 5-bromo-1-(1-(1-(2-fluorobenzyl)-2,5-dimethyl-1H-pyrrol-3-yl)-1-oxopropan-2-yl)pyridin-2(1H)-one] gave an inhibition at 1 µM of 44%.
Same read-out and setting: the result for `Cc1cc(C(=O)C(C)n2cc(Br)ccc2=O)c(C)n1Cc1ccc(F)c(F)c1` (centres unmarked) [Compound 20, 5-bromo-1-(1-(1-(3,4-difluorobenzyl)-2,5-dimethyl-1H-pyrrol-3-yl)-1-oxopropan-2-yl)pyridn-2(1H)-one] reads 46%; that for `Cc1cc(C(=O)C(C)n2cc(Br)ccc2=O)c(C)n1Cc1cccc(C(F)F)c1` (centres unmarked) [Compound 21, 5-bromo-1-(1-(1-(3-(difluoromethyl)benzyl)-2,5-dimethyl-1H-pyrrol-3-yl)-1-oxopropan-2-yl)pyridin-2(1H)-one], 42%.
With `Cc1cc(C(=O)C(C)n2cc(Br)ccc2=O)c(C)n1Cc1cccc(Cl)c1` (centres unmarked) [Compound 22, 5-bromo-1-(1-(1-(3-chlorobenzyl)-2,5-dimethyl-1H-pyrrol-3-yl)-1-oxopropan-2-yl)pyridin-2(1H)-one], the inhibition at 1 µM was 73%.
Regarding `Cc1cc(C(=O)C(C)n2cc(Br)ccc2=O)c(C)n1Cc1cccc(C(=O)O)c1` (centres unmarked) [Compound 23, 3-((3-(2-(5-bromo-2-oxopyridin-1(2H)-yl)propanoyl)-2,5-dimethyl-1H-pyrrol-1-yl)metnyl)benzoic add], testing at 1 µM gave an inhibition of 69%.
`Cc1cc(C(=O)C(C)n2cc(Br)ccc2=O)c(C)n1Cc1cccnc1` (centres unmarked) [Compound 24, 5-bromo-1-(1-(2,5-dimethyl-1-(pyridin-3-ylmethyl)-1H-pyrrol-3-yl)-1-oxopropan-2-yl)pyridin-2(1H)-one] yielded an inhibition at 1 µM of 73%.
`Cc1cc(C(=O)C(C)n2cc(Br)ccc2=O)c(C)n1Cc1ccncc1` (centres unmarked) [Compound 25, 5-bromo-1-(1-(2,5-dimethyl-1-(pyridin-4-ylmethyl)-1H-pyrrol-3-yl)-1-oxopropan-2-yl)pyridin-2(1H)-one] gave an inhibition at 1 µM of 39%.
`CC#Cc1ccc(=O)n(CC(=O)c2cc(C)n(Cc3ccccc3)c2C)c1` [Compound 26, 1-(2-(1-benzyl-2,5-dimethyl-1H-pyrrol-3-yl)-2-oxoethyl)-5-(prop-1-yn-1-yl)pyridin-2(1H)-one] returned an inhibition at 1 µM of 55%.
For `Cc1cc(C(=O)Cn2cc(Br)ccc2=O)c(C)n1Cc1ccc(F)cc1` [Compound 28, 5-bromo-1-(2-(1-(4-fluorobenzyl)-2,5-dimethyl-1H-pyrrol-3-yl)-2-oxoethyl)pyridin-2(1H)-one], the inhibition at 1 µM is 58%.
Still for that read-out and setting: with `Cc1nc(C(=O)Cn2cc(Br)ccc2=O)c(C)n1Cc1ccc(F)cc1` [Compound 30, 5-bromo-1-(2-(1-(4-fluorobenzyl)-2,5-dimethyl-1H-imidazol-4-yl)-2-oxoethyl)pyridin-2(1H)-one] the figure was 64%; with `C#Cc1ccc(=O)n(CC(=O)c2cc(C)n(Cc3ccc(F)cc3)n2)c1` [Compound 31, 5-ethynyl-1-(2-(1-(4-fluorobenzyl)-5-methyl-1H-pyrazol-3-yl)-2-oxoethyl)pyridin-2(1H)-one], 69%.
On the same count and under the same terms, the result for `Cc1nnc(Cn2c(C)cc(C(=O)C(C)n3cc(Br)ccc3=O)c2C)o1` (centres unmarked) [Example 57, 5-Bromo-1-(1-(2,5-dimethyl-1-((5-methyl-1,3,4-oxadiazol-2-yl)methyl)-1H-pyrrol-3-yl)-1-oxopropan-2-yl)pyridin-2(1H)-one] reads 10%; that for `Cc1cc(C(=O)C(C)n2cc(Br)ccc2=O)c(C)n1CC1CC1` (centres unmarked) [Example 58, 5-Bromo-1-(1-(1-(cyclopropylmethyl)-2,5-dimethyl-1H-pyrrol-3-yl)-1-oxopropan-2-yl)pyridin-2(1H)-one], less than 10%.
The compound `Cc1cc(C(=O)C(C)n2cc(Br)ccc2=O)c(C)n1CC1CCC1` (centres unmarked) [Example 59, 5-Bromo-1-(1-(1-(cyclobutylmethyl)-2,5-dimethyl-1H-pyrrol-3-yl)-1-oxopropan-2-yl)pyridin-2(1H)-one] showed an inhibition at 1 µM of less than 10%.
Compound `COc1cccc(Cn2c(C)cc(C(=O)C(C)n3cc(Br)ccc3=O)c2C)c1` (centres unmarked) [Example 60, 5-Bromo-1-(1-(1-(3-methoxybenzyl)-2,5-dimethyl-1H-pyrrol-3-yl)-1-oxopropan-2-yl)pyridin-2(1H)-one] gave an inhibition at 1 µM of less than 10%.

The same assay, now with this note: CHO-S1P2-FL cells, 1 hour compound incubation, then for 5 min.
One may read the IC50 as the concentration needed to halve the response being measured. Low readings indicate greater potency, high ones weaker potency. With `Cc1cc(C(=O)C(C)n2cc(Br)ccc2=O)c(C)n1Cc1cccc(Cl)c1` (centres unmarked) [Compound 22, 5-bromo-1-(1-(1-(3-chlorobenzyl)-2,5-dimethyl-1H-pyrrol-3-yl)-1-oxopropan-2-yl)pyridin-2(1H)-one], the 50% inhibitory concentration (IC50) is 793 nM. In other words, the sub-micromolar range.
In turn, `Cc1cc(C(=O)C(C)n2cc(Br)ccc2=O)c(C)n1Cc1cccc(C(=O)O)c1` (centres unmarked) [Compound 23, 3-((3-(2-(5-bromo-2-oxopyridin-1(2H)-yl)propanoyl)-2,5-dimethyl-1H-pyrrol-1-yl)metnyl)benzoic add] yielded a concentration for half-maximal inhibition (IC50) of 297 nM. Compared with the last compound, the IC50 is about 2.7-fold lower.
`CC#Cc1ccc(=O)n(CC(=O)c2cc(C)n(Cc3ccccc3)c2C)c1` [Compound 26, 1-(2-(1-benzyl-2,5-dimethyl-1H-pyrrol-3-yl)-2-oxoethyl)-5-(prop-1-yn-1-yl)pyridin-2(1H)-one] showed a half-inhibitory concentration (IC50) of 194 nM. Compared with the last compound, the IC50 is about 1.5-fold lower.
Compound `Cc1nc(C(=O)Cn2cc(Br)ccc2=O)c(C)n1Cc1ccc(F)cc1` [Compound 30, 5-bromo-1-(2-(1-(4-fluorobenzyl)-2,5-dimethyl-1H-imidazol-4-yl)-2-oxoethyl)pyridin-2(1H)-one] came in with a half-maximal inhibitory concentration (IC50) of 595 nM.
In the case of `C#Cc1ccc(=O)n(CC(=O)c2cc(C)n(Cc3ccc(F)cc3)n2)c1` [Compound 31, 5-ethynyl-1-(2-(1-(4-fluorobenzyl)-5-methyl-1H-pyrazol-3-yl)-2-oxoethyl)pyridin-2(1H)-one], the IC50 was 253 nM. This IC50 is about 2.4-fold lower than that of the compound before.
Same read-out and setting: with `O=c1ccc(Br)cn1Cc1nccc2c1cnn2Cc1ccccc1` [Compound 130, 1-((1-Benzyl-1H-pyrazolo[4,3-c]pyridin-4-y)methyl)-5-bromopyridin-2(1H)-one hydrochloride] the figure was 140 nM; with `C#Cc1ccc(=O)n(Cc2nccc3c2cnn3Cc2ccccc2)c1` [Compound 131, 1-((1-benzyl-1H-pyrazolo[4,3-c]pyridin-4-yl)methyl)-5-ethynylpyridin-2(1H)one hydrochloride], 58 nM; with `Cc1cc(C(=O)Cn2c(C)c(C#N)ccc2=O)c(C)n1Cc1ccccc1` [Example 44, 1-(2-(1-Benzyl-2,5-dimethyl-1H-pyrrol-3-yl)-2-oxoethyl)-2-methyl-6-oxo-1,6-dihydropyridine-3-carbonitrile], more than 10000 nM.
The same measure, in the same setting: the result for `Cc1cc(C(=O)Cn2cc(Cl)ccc2=O)c(C)n1Cc1ccccc1` [Example 45, 1-(2-(1-Benzyl-2,5-dimethyl-1H-pyrrol-3-yl)-2-oxoethyl)-5-chloropyridin-2(1H)-one] reads more than 10000 nM; that for `Cc1cc(C(=O)Cn2cc(C(=O)O)ccc2=O)c(C)n1Cc1ccccc1` [Example 46, 1-(2-(1-Benzyl-2,5-dimethyl-1H-pyrrol-3-yl)-2-oxoethyl)-6-oxo-1,6-dihydropyridine-3-carboxylic Acid], more than 10000 nM.
Same read-out and setting: with `Cc1cc(C(=O)Cn2cc(C#N)ccc2=O)c(C)[nH]1` [Example 47, 1-(2-(2,5-Dimethyl-1H-pyrrol-3-yl)-2-oxoethyl)-6-oxo-1,6-dihydropyridine-3-carbonitrile] the figure was more than 10000 nM.
For the compound `Cc1cc(C(=O)C(Cc2ccc(-c3ccccc3)cc2)n2cc(C#N)ccc2=O)c(C)[nH]1` (centres unmarked) [Example 48, 1-(3-((1,1′-Biphenyl)-4-yl)-1-(2,5-dimethyl-1H-pyrrol-3-yl)-1-oxopropan-2-yl)-6-oxo-1,6-dihydropyridine-3-carbonitrile], the half-inhibitory concentration (IC50) is more than 10000 nM.
Same read-out and setting: the result for `Cc1cc(=O)n(CC(=O)c2cc(C)n(Cc3ccccc3)c2C)cc1C#N` [Example 49, 1-(2-(1-Benzyl-2,5-dimethyl-1H-pyrrol-3-yl)-2-oxoethyl)-4-methyl-6-oxo-1,6-dihydropyridine-3-carbonitrile] reads more than 10000 nM; that for `COc1ccc(=O)n(CC(=O)c2cc(C)n(Cc3ccccc3)c2C)c1` [Example 50, 1-(2-(1-Benzyl-2,5-dimethyl-1H-pyrrol-3-yl)-2-oxoethyl)-5-methoxypyridin-2(1H)-one], more than 10000 nM.
With `Cc1cc(C(=O)C(Cc2ccccc2)n2cc(C#N)ccc2=O)c(C)n1Cc1ccccc1` (centres unmarked) [Example 51, 1-(1-(1-Benzyl-2,5-dimethyl-1H-pyrrol-3-yl)-1-oxo-3-phenylpropan-2-yl)-6-oxo-1,6-dihydropyridine-3-carbonitrile], the IC50 was more than 10000 nM.
For the compound `Cc1cc(C(=O)C(C)n2cc(C#N)ccc2=O)c(C)n1Cc1ccccc1` (centres unmarked) [Example 52, 1-(1-(1-Benzyl-2,5-dimethyl-1H-pyrrol-3-yl)-1-oxopropan-2-yl)-6-oxo-1,6-dihydropyridine-3-carbonitrile], the IC50 is more than 10000 nM.
In turn, `Cc1cc(C(=O)Cn2cc(C(C)(C)C)ccc2=O)c(C)n1Cc1ccccc1` [Example 53, 1-(2-(1-Benzyl-2,5-dimethyl-1H-pyrrol-3-yl)-2-oxoethyl)-5-(tert-butyl)pyridin-2(1H)-one] registered a 50% inhibitory concentration (IC50) of more than 10000 nM.
`CC(=O)Nc1ccc(=O)n(CC(=O)c2cc(C)n(Cc3ccccc3)c2C)c1` [Example 54, N-(1-(2-(1-Benzyl-2,5-dimethyl-1H-pyrrol-3-0)-2-oxoethyl)-6-oxo-1,6-dihydropyridin-3-yl)acetamide] yielded a half-inhibitory concentration (IC50) of more than 10000 nM.
As to `Cc1c(C(=O)Cn2nc(Br)ccc2=O)cnn1Cc1ccccc1` [Example 55, 2-(2-(1-Benzyl-5-methyl-1H-pyrazol-4-yl)-2-oxoethyl)-6-bromopyridazin-3(2H)-one], the IC50 turned out to be 110 nM.
The same measure, in the same setting: with `Cc1c(C(=O)Cn2cc(Br)cnc2=O)cnn1Cc1ccccc1` [Example 56, 1-(2-(1-Benzyl-5-methyl-1H-pyrazol-4-yl)-2-oxoethyl)-5-bromopyrimidin-2(1H)-one] the figure was 200 nM.
